Experimental findings from patent publication US11331333B2, “Treatment of aberrant fibroblast proliferation” (Georg August Universitaet Goettingen Stiftung Oeffentlichen …, priority 2019, dated 2022) are described below.

Experiment [1] has as its system primary murine fibroblast cultures overexpressing EYA1C. Nature of the experiment: γH2A.X^pY142 labelling after NCS exposure in fibroblasts overexpressing EYA1C. The class given is cell-based, mouse. The note with it: 60 minutes after NCS exposure. An excerpt:
FIGS. 12A-12B show the effect of the established EYA1 γH2A.X^pY142 tyrosine phosphatase inhibitors Na3VO4 (blocking tyrosine phosphatase activity) and caffeine (blocking ATM-dependent recruitment of EYA1 towards γH2A.X) on γH2A.X^pY142 dephosphorylation and fibroblast accumulation. FIG. 12A depicts results of an analysis of photomicrographs of primary murine fibroblast cultures transfected with control plasmids (vector) and plasmids overexpressing EYA1A (EYA1A^oe) or EYA1C (EYA1C^oe). Cells were exposed to either Na3VO4 or caffeine and labelled for 7H2A.X^pY142 60 minutes after NCS exposure (n=100 nuclei each, data are presented as means±s.d., **p<0.01, # no significance, values of p were calculated using Student's t test comparing indicated groups). FIG. 12B depicts results of an analysis of proliferative activity of primary murine fibroblasts transfected with indicated constructs, seeded at a density of 60,000 per well. Proliferative activity was determined at indicated time points after exposure to Na3VO4 or caffeine (n=3 independent replicates, data are presented as means±s.d., ***p<0.001, ****p<0.0001, values of p were calculated using one-way ANOVA with Bonferroni post-hoc analysis comparing control and Na3VO4^− or caffeine-treated cultures overexpressing EYA1A). […]

The subject of experiment [2] is primary murine fibroblasts overexpressing EYA1A. Nature of the experiment: Proliferative activity of primary murine fibroblasts overexpressing EYA1A. Particulars: seeded at 60,000 per well. The format is cell-based, mouse. The source says:
FIGS. 12A-12B show the effect of the established EYA1 γH2A.X^[…] tyrosine phosphatase inhibitors Na3VO4 (blocking tyrosine phosphatase activity) and caffeine (blocking ATM-dependent recruitment of EYA1 towards γH2A.X) on γH2A.X^[…] dephosphorylation and fibroblast accumulation. FIG. 12A depicts results of an analysis of photomicrographs of primary murine fibroblast cultures transfected with control plasmids (vector) and plasmids overexpressing […]) or EYA1C (EYA1C^oe). […] FIG. 12B depicts results of an analysis of proliferative activity of primary murine fibroblasts transfected with indicated constructs, seeded at a density of 60,000 per well.

For `Cn1c(=O)c2c(ncn2C)n(C)c1=O` [caffeine], in experiment [1], the “γH2A.X^pY142 in EYA1C overexpressing cells” value is on record as “neither Na3VO4 nor caffeine affected”. For the same molecule, the EYA1A-induced fibroblast accumulation result in experiment [2] is “reversed”.

`[Na+].[Na+].[Na+].[O]=[V]([O-])([O-])[O-]` [Na3VO4, sodium orthovanadate]: in experiment [1], the “γH2A.X^pY142 in EYA1C overexpressing cells” value is recorded as “neither Na3VO4 nor caffeine affected”. Further, in experiment [2], the EYA1A-induced fibroblast accumulation result is “reversed”.
